Read-outs that look alike come from different tables or passages of the source.

We go through 20 compounds from EP0353821B1, “Antipsychotic 3-piperazinyl-benzazole derivatives” (JANSSEN PHARMACEUTICA N.V., priority 1988, dated 1990).

In experiment [1] the test system is apomorphine-induced phenomena: agitation and stereotypic chewing. As to the kind of experiment: Combined apomorphine-, tryptamine- and norepinephrine test in rats: apomorphine (APO) part. In kind it is in vivo, adult male Wistar rats. The conditions noted are these: Rattus norvegicus, read-out: Combined test in rats, ED₅₀ in mg/kg (APO). On the procedure: (§1) The combined apomorphine (APO)-, tryptamine (TRY)- and norepinephrine (NOR) test in rats.
(§2) The experimental animals used in this test were adult male Wistar rats (weight 240 ± 10g). After an overnight fast the animals were treated subcutaneously or orally with an aqueous solution of the compound under investigation (1ml/100g body weight) (time = zero) and put in isolated observation cages. […] At the end of this 1 hour period (time = 90 minutes) the same animals were injected intravenously with 40 mg/kg of tryptamine (TRY) and the presence of the typical tryptamine-induced bilateral tonic seizures and hyperaemia of the ears was noted. Two hours after pretreatment (time = 120 minutes) finally, the same animals were challenged with 1.25 mg/kg intravenously of norephinephrine (NOR) and possible mortality was looked for up to 60 minutes later.
(§3) The table 3 gives the ED₅₀-values of a number of the compounds under consideration. As used herein, the ED₅₀-value represents the dose which protects 50% of the animals from apomorphine-, tryptamine- or norepinephrine-induced phenomena.

Experiment [2] has as its system apomorphine (emesis). As to the kind of experiment: The apomorphine test in dogs (APO-dog). Format: in vivo, beagle dogs. The conditions noted are these: Canis lupus familiaris, 1 h; compound subcutaneously or orally; 0.31 mg/kg (s.c.) apomorphine one hour thereafter; dose which protects 50% of the animals from emesis; read-out: (APO)-dog test, ED₅₀ in mg/kg. The protocol: The apomorphine test in dogs (APO-dog).
The method used is described by P.A.J. Janssen and C.J.E. Niemegeers in Arzneim.-Forsch. (Drug Res.), 9, 765-767 (1959). The compounds listed in table 3 were administered subcutaneously or orally to beagle dogs at different doses and the animals were challenged one hour thereafter with a standard dose of 0.31 mg/kg (s.c.) of apomorphine.
The table 3 gives the ED₅₀-values of a number of the compounds under consideration. As used herein, the ED₅₀ value represents the dose which protects 50% of the animals from emesis.

The test system of experiment [3] is norepinephrine-induced phenomena (mortality). In words: Combined apomorphine-, tryptamine- and norepinephrine test in rats: norepinephrine (NOR) part. In kind it is in vivo, adult male Wistar rats. The following applies: Rattus norvegicus; compound subcutaneously or orally; 1.25 mg/kg norepinephrine i.v. at 120 minutes; mortality up to 60 minutes later; dose which protects 50% of the animals; read-out: Combined test in rats; ED₅₀ in mg/kg (NOR). On the procedure: as §1, §2, §3

Experiment [4] has as its system tryptamine-induced bilateral tonic seizures and hyperaemia of the ears. In words: Combined apomorphine-, tryptamine- and norepinephrine test in rats: tryptamine (TRY) part. Format: in vivo, adult male Wistar rats. The following applies: Rattus norvegicus, 1.5 h, compound subcutaneously or orally, 40 mg/kg tryptamine i.v. at 90 minutes, dose which protects 50% of the animals, read-out: Combined test in rats. On the procedure: as §1, §2, §3

Where [5] appears, read: bilateral tonic seizures, ED₅₀ in mg/kg (TRY)-convulsions.
The mark [6] stands for this setting: hyperaemia of the ears, ED₅₀ in mg/kg (TRY)-hyperaemia.
Setting [7] is: compound subcutaneously or orally, 1.25 mg/kg apomorphine i.v. at 30 minutes, observed 1 hour, dose which protects 50% of the animals.

Turning to `Cc1nc2sccn2c(=O)c1CCN1CCN(c2noc3ccccc23)CC1` [Compound 31], the ED50 in experiment [1] stood at 0.03 mg/kg; in experiment [2] it was 0.03 mg/kg; in experiment [3] it was 1.25 mg/kg; in experiment [4] (setting [5]), 0.02 mg/kg; in experiment [4] (setting [6]) it was 0.00031 mg/kg.

Take `Cc1nc2n(c(=O)c1CCN1CCN(c3noc4ccccc34)CC1)CCS2` [Compound 27]: the ED50 in experiment [1] (setting [7]) is 0.03 mg/kg; in experiment [2], 0.06 mg/kg; in experiment [3], 0.31 mg/kg; in experiment [4] (setting [5]), 0.03 mg/kg; in experiment [4] (setting [6]), 0.00125 mg/kg.

As for `Cc1nc2scc(C)n2c(=O)c1CCN1CCN(c2noc3cc(F)ccc23)CC1` [Compound 39], the ED50 in experiment [1] (setting [7]) is 0.08 mg/kg; in experiment [2], 0.03 mg/kg; in experiment [3], 0.31 mg/kg; in experiment [4] (setting [5]), 0.04 mg/kg; in experiment [4] (setting [6]) it was under 0.04 mg/kg.

`Cc1nc2scc(C)n2c(=O)c1CCN1CCN(c2n[nH]c3ccccc23)CC1` [Compound 65]: the ED50 in experiment [1] came to 0.08 mg/kg; in experiment [3], 1.25 mg/kg; in experiment [4] (setting [5]), 0.04 mg/kg; in experiment [4] (setting [6]), 0.00063 mg/kg.

With `Cc1nc2ccccn2c(=O)c1CCN1CCN(c2n[nH]c3cc(F)ccc23)CC1` [Compound 16], the ED50 is 0.08 mg/kg in experiment [1] (setting [7]), under 0.01 mg/kg in experiment [2], 0.08 mg/kg in experiment [4] (setting [5]) and 0.005 mg/kg in experiment [4] (setting [6]).

In the case of `Cc1nc2sccn2c(=O)c1CCN1CCN(c2noc3cc(F)ccc23)CC1` [Compound 34], the ED50 is 0.02 mg/kg in experiment [1] (setting [7]); 0.015 mg/kg in experiment [2]; 0.31 mg/kg in experiment [3]; 0.08 mg/kg in experiment [4] (setting [5]); under 0.01 mg/kg in experiment [4] (setting [6]).

On to `Cc1nc2n(c(=O)c1CCN1CCN(c3nsc4ccccc34)CC1)CCCC2C` (stereo not drawn) [Compound 55], for which the ED50 in experiment [1] (setting [7]) was 0.04 mg/kg; in experiment [2] it was over 0.016 mg/kg; in experiment [3], 10 mg/kg; in experiment [4] (setting [5]), 0.04 mg/kg; in experiment [4] (setting [6]), 0.0025 mg/kg.

`Cc1nc2ccccn2c(=O)c1CCN1CCN(c2n[nH]c3ccccc23)CC1` [Compound 41]: the ED50 in experiment [1] turned out to be 0.08 mg/kg; in experiment [2], 0.03 mg/kg; in experiment [3], 1.25 mg/kg; in experiment [4] (setting [5]), 0.04 mg/kg; in experiment [4] (setting [6]), 0.005 mg/kg.

`Cc1nc2c(C)cccn2c(=O)c1CCN1CCN(c2n[nH]c3cc(F)ccc23)CC1` [Compound 47]: the ED50 in experiment [1] (setting [7]) is 0.04 mg/kg; in experiment [2], 0.001 mg/kg; in experiment [3], 0.08 mg/kg; in experiment [4] (setting [5]) it was 0.08 mg/kg; in experiment [4] (setting [6]), 0.000125 mg/kg.

For the compound `Cc1nc2ccccn2c(=O)c1CCN1CCN(c2noc3cc(F)ccc23)CC1` [Compound 15], the ED50 in experiment [1] (setting [7]) was found to be 0.04 mg/kg; in experiment [2], 0.015 mg/kg; in experiment [3], 0.31 mg/kg; in experiment [4] (setting [5]) it was 0.08 mg/kg; in experiment [4] (setting [6]) it was 0.005 mg/kg.

For `Cc1nc2n(c(=O)c1CCN1CCN(c3noc4cc(F)ccc34)CC1)CCCS2` [Compound 25], the ED50 in experiment [1] (setting [7]) was 0.08 mg/kg; in experiment [2], 0.06 mg/kg; in experiment [3], 0.31 mg/kg; in experiment [4] (setting [5]) it was 0.08 mg/kg; in experiment [4] (setting [6]), at most 0.01 mg/kg.

For `Cc1nc2ccccn2c(=O)c1CCN1CCN(c2nsc3ccccc23)CC1` [Compound 11], the ED50 in experiment [1] was determined as 0.08 mg/kg; in experiment [2], 0.45 mg/kg; in experiment [3], 1.25 mg/kg; in experiment [4] (setting [5]) it was 0.08 mg/kg; in experiment [4] (setting [6]), 0.00031 mg/kg.

On to `Cc1nc2sccn2c(=O)c1CCN1CCN(c2n[nH]c3ccccc23)CC1` [Compound 64], for which the ED50 turned out to be 0.08 mg/kg in experiment [1], 1.25 mg/kg in experiment [3], 0.08 mg/kg in experiment [4] (setting [5]) and 0.005 mg/kg in experiment [4] (setting [6]).

Regarding `Cc1nc2n(c(=O)c1CCN1CCN(c3noc4cc(F)ccc34)CC1)CCCC2` [Compound 20], the ED50 is 0.08 mg/kg in experiment [1] (setting [7]), 0.015 mg/kg in experiment [2], 0.08 mg/kg in experiment [4] (setting [5]) and 0.005 mg/kg in experiment [4] (setting [6]).

In the case of `Cc1nc2n(c(=O)c1CCN1CCN(c3nsc4ccccc34)CC1)CCS2` [Compound 26], the ED50 in experiment [1] (setting [7]) came to 0.08 mg/kg; in experiment [2] it was 0.03 mg/kg; in experiment [3] it was 5 mg/kg; in experiment [4] (setting [5]), 0.02 mg/kg; in experiment [4] (setting [6]) it was 0.00125 mg/kg.

Consider `Cc1nc2sccn2c(=O)c1CCN1CCN(c2n[nH]c3cc(F)ccc23)CC1` [Compound 63], for which the ED50 in experiment [1] (setting [7]) amounted to 0.02 mg/kg; in experiment [2] it was 0.001 mg/kg; in experiment [3] it was 0.16 mg/kg; in experiment [4] (setting [5]), 0.02 mg/kg; in experiment [4] (setting [6]) it was 0.00125 mg/kg.

`Cc1nc2n(c(=O)c1CCN1CCN(c3n[nH]c4cc(F)ccc34)CC1)CCCC2C` (stereo not drawn) [Compound 56]: the ED50 in experiment [1] (setting [7]) was found to be 0.08 mg/kg; in experiment [2] it was 0.00045 mg/kg; in experiment [3], 0.16 mg/kg; in experiment [4] (setting [5]) it was 0.08 mg/kg; in experiment [4] (setting [6]), 0.005 mg/kg.

`Cc1nc2c(C)cccn2c(=O)c1CCN1CCN(c2noc3ccccc23)CC1` [Compound 45]: the ED50 was 0.04 mg/kg in experiment [1]; over 0.01 mg/kg in experiment [2]; 1.25 mg/kg in experiment [3]; 0.08 mg/kg in experiment [4] (setting [5]); 0.02 mg/kg in experiment [4] (setting [6]).

`Cc1nc2n(c(=O)c1CCN1CCN(c3noc4cc(F)ccc34)CC1)CCS2` [Compound 3, 6-[2-[4-(6-fluoro-1,2-benzisoxazol-3-yl)-1-piperazinyl]ethyl]-2,3-dihydro-7-methyl-5H-thiazolo[3,2-a]pyrimidin-5-one]: the ED50 in experiment [1] (setting [7]) is 0.02 mg/kg; in experiment [2], 0.07 mg/kg; in experiment [3] it was 0.08 mg/kg; in experiment [4] (setting [5]), 0.005 mg/kg; in experiment [4] (setting [6]), 0.00125 mg/kg.

As for `Cc1nc2scc(C)n2c(=O)c1CCN1CCN(c2n[nH]c3cc(F)ccc23)CC1` [Compound 40], the ED50 in experiment [1] (setting [7]) came to 0.02 mg/kg; in experiment [2], 0.0025 mg/kg; in experiment [3], 0.08 mg/kg; in experiment [4] (setting [5]), 0.02 mg/kg; in experiment [4] (setting [6]), 0.00031 mg/kg.
